Laboratory results: US10722505B2, “Substituted 2,4 diamino-quinoline as new anticancer agents” (GENOSCIENCE PHARMA, priority 2014, dated 2020)
Counter-ions that a name gives are not always drawn. Values belong to the compound of their own block, whether it stands above or below them.

Key:
[1] = system: LI1005 HCC patient derived cells; experiment: CellTiter-Glo growth inhibition, HCC patient-derived cells LI1005; assay type: cell-based, human; details: LI1005, 72 hours
Protocol: (§1) The patient derived Hepatocellular Carcinoma (HCC) cells were maintained in medium respectively described in table 15 containing 1% penicillin-streptomycin (Life Technologies, 15070-063), with a supplements for primary cell culture (PCS) containing hydrocortisone (50 nM), Epidermal Growth Factor (20 ng/ml), β-fibroblast Growth Factor (10 ng/ml), Heparin (2 μg/ml) ITS liquid media supplement (1×) and non-essential amino acid (NEAA, 0.01 mM, 1×). The primary cell were cultured in a humidified atmosphere (95% relative humidity) with 5% CO2 at 37° C.
(§2) The cell growth inhibition assay was performed as described previously in example 5 using the CellTiter-Glo® luminescent cell viability assay as described by the manufacturer (Promega, Ref G7571). The number of cells seeded per well (in 96-Well Flat Clear Bottom Black Polystyrene TC-Treated Microplates, Cat #3340, Corning®) is described in the table 16. A backseal black sticker (Cat #6005189, Perkin Elmer) was placed to the bottom of each plate before recording CellTiter-Glo® luminescence.
(§3) The experimental data are analyzed using a computer program, Graphpad Prism V 5.0 (GraphPad Software, Inc. La Jolla, Calif.) and EC50 values were determined as the dose of compound required to reduce absorbance values to 50% of the signal obtained for vehicle treated cell cultures and were a mean of at least three independent experiments.

[2] = system: LI1646 HCC patient derived cells; experiment: CellTiter-Glo growth inhibition, HCC patient-derived cells LI1646; assay type: cell-based, human; details: LI1646, 72 hours
Protocol: as §1, §2, §3

[3] = system: LI0574 HCC patient derived cells; experiment: CellTiter-Glo growth inhibition, HCC patient-derived cells LI0574; assay type: cell-based, human; details: LI0574, 72 hours
Protocol: as §1, §2, §3

[4] = system: LI1098 HCC patient derived cells; experiment: CellTiter-Glo growth inhibition, HCC patient-derived cells LI1098; assay type: cell-based, human; details: LI1098, 72 hours
Protocol: as §1, §2, §3

[5] = system: LI0050 HCC patient derived cells; experiment: CellTiter-Glo growth inhibition, HCC patient-derived cells LI0050; assay type: cell-based, human; details: LI0050, 72 hours
Protocol: as §1, §2, §3

[6] = system: LI0612 HCC patient derived cells; experiment: CellTiter-Glo growth inhibition, HCC patient-derived cells LI0612; assay type: cell-based, human; details: LI0612, 72 hours
Protocol: as §1, §2, §3

[7] = system: LI0752 HCC patient derived cells; experiment: CellTiter-Glo growth inhibition, HCC patient-derived cells LI0752; assay type: cell-based, human; details: LI0752, 72 hours
Protocol: as §1, §2, §3

[8] = system: LI0801 HCC patient derived cells; experiment: CellTiter-Glo growth inhibition, HCC patient-derived cells LI0801; assay type: cell-based, human; details: LI0801, 72 hours
Protocol: as §1, §2, §3

MOLM-14 cell line = experiment: CellTiter-Glo cell viability / growth inhibition assay, MOLM-14 (Example 5); assay type: cell-based; details: Homo sapiens, 72 h; for viability at 4 µM / viability at 10 µM: MOLM-14
Protocol: (§4) All cell lines were maintained in medium containing 1% penicillin-streptomycin (Dutscher, P06-07100) and 10% Fetal Bovine Serum (Gibco, W3387L) except 20% for KG-1 cell line and PBMC, and cultured at 37° C. with 5% CO2.
MOLM-14 cell line was maintained in MEM alpha medium (Gibco, 22561-021).
(§5) Cell viability was measured using the CellTiter-Glo® luminescent cell viability assay as described by the manufacturer (Promega, Ref G7571) using an Infinite F200Pro luminometer (Tecan). Briefly, for adherent cells, cells were plated onto 96-well plates (white with clear bottom) in 90 μL of media per well and were allowed to grow overnight before the assay. For cells growing in suspension, cells were plated onto 96-well plates immediately before the assay.
(§6) Compounds were added at different concentrations to each well, and cell cultures were incubated for 72 h. Vehicle (H2O) was used as a control, and all compounds were tested in a constant percentage of H2O. After addition of 100 μL of CellTiter-Glo®, luminescence was measured using an Infinite F200Pro (Tecan). EC50 values were determined as the dose of compound required to reduce luminescent values to 50% of the signal obtained for untreated cell cultures. The experimental data were analyzed using a computer program, Graphpad Prism v5 (GraphPad Software, Inc. La Jolla, Calif.).
All experiments were at least done in duplicate and repeated two independent times.

A375 cell line = experiment: CellTiter-Glo growth inhibition assay, A375; assay type: cell-based; details: Homo sapiens, A-375; A375, malignant melanoma, 72 h
Protocol: as §4
(§7) HepG2, Huh7, HCT-116, MDA-MB-231 and A375 cell lines were cultured in Dulbecco's modified Eagle's medium (Dutscher, L0103).
as §5
as §6, with “Calif.). […]” for “Calif.).”

HepG2 cell line = experiment: CellTiter-Glo growth inhibition assay, HepG2; assay type: cell-based; details: Homo sapiens; HepG2, hepatocellular carcinoma, 72 h
Protocol: as §4, §7, §5
as §6, with “Calif.). […]” for “Calif.).”

HCT-116 cell line = experiment: CellTiter-Glo growth inhibition assay, HCT-116; assay type: cell-based; details: Homo sapiens; HCT-116, colorectal carcinoma, 72 h
Protocol: as §4, §7, §5
as §6, with “Calif.). […]” for “Calif.).”

Structure (SMILES): N.N.[Cl][Pt][Cl] [Cisplatin]
EC50 [1]: 5.9 µM
EC50 [2]: 10 µM
EC50 [3]: 3.6 µM
EC50 [4]: 5.1 µM
EC50 [5]: 1.3 µM
EC50 [6]: 16.3 µM
EC50 [7]: 2.6 µM
EC50 [8]: 1.5 µM

Structure (SMILES): CC(C)(C)NC1CCN(c2cc(Nc3ccc(Cl)cc3)nc3ccccc23)CC1 [Compound 1-6, 2-(4-chlorophenylamino)-4-(4-tert-butylaminopiperidin-1-yl)-quinoline hydrochloride salt]
viability at 4 µM (MOLM-14 cell line): 71.8%
viability at 10 µM (MOLM-14 cell line): 12.1%

Structure (SMILES): Cc1cc(Nc2cc(N3CCC(NC(C)(C)C)CC3)c3ccccc3n2)ccc1Nc1ncccn1 [Compound 3-5, 2-[3-methyl-4-(pyrimidin-2-ylamino)phenylamino]-4-(4-tert-butylaminopiperidin-1-yl)-quinoline hydrochloride salt]
viability at 4 µM (MOLM-14 cell line): 78.7%
viability at 10 µM (MOLM-14 cell line): 8.7%

EC50 (A375 cell line): 1.4 µM
EC50 (HepG2 cell line): 6.3 µM
EC50 (MOLM-14 cell line; MOLM-14, acute myeloïd leukemia, FLT3-ITD heterozygote+/−): 2.3 µM
EC50 (HCT-116 cell line): 1.8 µM
Structure (SMILES): Cc1cc(Nc2cc(N3CCC(NC(C)(C)C)CC3)c3ccccc3n2)ccc1Nc1nccc(-c2cccnc2)n1 [Compound 4-3, 2-{4-[4-(pyridin-3-yl)-2-pyrimidinamino]-3-methyl-phenylamino}-4-(4-tert-butylaminopiperidin-1-yl)-quinoline hydrochloride salt]
viability at 4 µM (MOLM-14 cell line): 0.5%
viability at 10 µM (MOLM-14 cell line): 0.2%
